Like-named read-outs stand apart in the source and are kept apart here.
Legend:
[1] = biological target: Beta Secretase enzyme (BACE) (Homo sapiens, UniProt P56817); assay: In vitro enzymatic BACE FRET (fluorescence resonance energy transfer) assay; assay type: biochemical;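 note: fluorescence read after 1 h with 50 nM quenched peptide substrate spanning the BACE cleavage site, in pH 4.2 acetate buffer containing 10% DMSO and nonionic detergent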
[2] = tested on: Aβ40 in conditioned medium of cells stably expressing Amyloid Precursor Protein (APP); assay: In vitro BACE cell-based assay (Aβ40 in conditioned medium, sandwich ELISA);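 note: compounds added as a dilution series, secreted peptide quantified by europium time-resolved fluorescence readout, potency fitted from percent of control versus compound concentration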
[3] = Table 1, read-out: BACE1 FRET assay
[4] = Homo sapiens, HEK293, Table 1, HEK cells, read-out: HEK cell assay
[5] = BACE enzyme assay, read-out: BACE1 FRET assay (IC50)
[6] = Homo sapiens, HEK293, HEK cells, cell-based assay, read-out: HEK cell assay (IC50)
[7] = BACE enzyme FRET assay, read-out: BACE1 FRET assay (IC50)
[8] = BACE enzyme assay, IC50's in uM, read-out: BACE1 FRET assay

Chain of Beta Secretase enzyme (BACE) (P56817 46-501): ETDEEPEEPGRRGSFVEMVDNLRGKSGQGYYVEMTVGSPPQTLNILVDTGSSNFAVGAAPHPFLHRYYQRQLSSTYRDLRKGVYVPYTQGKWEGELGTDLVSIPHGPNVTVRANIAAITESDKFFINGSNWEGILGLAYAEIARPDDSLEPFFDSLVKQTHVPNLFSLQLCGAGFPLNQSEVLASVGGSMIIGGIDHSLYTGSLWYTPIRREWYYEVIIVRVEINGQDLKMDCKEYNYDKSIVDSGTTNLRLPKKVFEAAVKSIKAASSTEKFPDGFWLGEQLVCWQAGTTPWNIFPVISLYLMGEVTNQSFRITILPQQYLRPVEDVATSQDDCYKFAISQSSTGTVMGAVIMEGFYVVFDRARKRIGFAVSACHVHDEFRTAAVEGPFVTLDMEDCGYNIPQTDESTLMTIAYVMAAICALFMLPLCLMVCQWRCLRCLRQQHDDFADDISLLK

COCC(=O)N[C@@H](Cc1cccc(F)c1)[C@H](O)CN[C@H]1CC2(CCC2)Oc2ncc(CC(F)(F)F)cc21 [compound 350]
IC50 [1, 3]: 0.00909 µM | IC50 [2, 4]: 0.0245 µM

CC(C)(C)Cc1cnc2c(c1)[C@@H](NC[C@@H](O)[C@H](Cc1cccc(F)c1)NC(=O)CCl)CC1(CCC1)O2 [compound 107]
IC50 [1, 5]: 0.00507 µM | IC50 [2, 6]: 0.0224 µM

COCC(=O)N[C@@H](Cc1ccccc1)[C@H](O)CNC1CC2(CC(F)(F)C2)Oc2ncc(CC(C)(C)C)cc21 (some centres unmarked) [compound 54]
IC50 [1, 5]: 0.003 µM | IC50 [2, 6]: 0.066 µM

CO[C@H](C)C(=O)N[C@@H](Cc1cc(F)c2c(c1)OCO2)[C@H](O)CN[C@H]1CC2(CCC2)Oc2ncc(CC(C)C)cc21 [compound 343]
IC50 [1, 3]: 0.0344 µM | IC50 [2, 4]: 0.0417 µM

CC(=O)NC(Cc1cccc(F)c1)C(O)CNC1CC2(CC(O)C2)Oc2cnccc21 [compound 237, N-((1S,2R)-1-((3-fluorophenyl)methyl)-2-hydroxy-3-(((1r,3R,4′S)-3-hydroxy-3′,4′-dihydrospiro[cyclobutane-1,2′-pyrano[2,3-c]pyridin]-4′-yl)amino)propyl)acetamide]
IC50 [1, 7]: 6.42 µM | IC50 [2, 6]: 2.45 µM

CO[C@H](C)C(=O)N[C@@H](Cc1ccc2c(c1)OCO2)[C@H](O)CN[C@H]1CC2(CCC2)Oc2ncc(C[C@H](C)C(F)(F)F)cc21 [compound 340]
IC50 [1, 3]: 0.148 µM | IC50 [2, 4]: 0.0906 µM

CC(C)(C)Cc1cnc2c(c1)[C@@H](NC[C@@H](O)[C@H](Cc1ccc3c(c1)OCO3)NC(=O)C(C)(Cl)Cl)CC1(CCC1)O2 [compound 98]
IC50 [1, 5]: 0.54 µM | IC50 ([2]; HEK cells, cell-based assay, read-out: HEK cell assay (IC50)): 0.767 µM

COCC(=O)N[C@@H](Cc1cccc(F)c1)[C@H](O)CN[C@H]1CC2(CCC2)Oc2ncc(CC(C)C)cc21 [compound 329]
IC50 [1, 3]: 0.00326 µM | IC50 [2, 4]: 0.00601 µM

CO[C@H](C)C(=O)N[C@@H](Cc1ccc(Cl)c(F)c1)[C@H](O)CN[C@H]1CC2(CCC2)Oc2ncc(CC(C)(C)F)cc21 [compound 70]
IC50 [1, 5]: 0.0558 µM | IC50 [2, 6]: 0.138 µM

COCC(=O)N[C@@H](Cc1cc(F)cc(F)c1)[C@H](O)CN[C@H]1CC2(CCC2)Oc2ncc(CC(C)(C)F)cc21 [compound 286]
IC50 [1, 7]: 0.00332 µM | IC50 [2, 6]: 0.00599 µM

C=CC[C@H](NC(=O)COC)[C@H](O)CN[C@H]1CC2(CCC2)Oc2cnc(CC(C)(C)C)cc21 [compound 120]
IC50 [1, 5]: 0.745 µM | IC50 [2, 6]: 0.343 µM

COCC(=O)N[C@@H](Cc1ccc(F)cc1)[C@H](O)CN[C@H]1CC2(CCC2)Oc2c(F)cc(CC(C)(C)C#N)cc21 [compound 172]
IC50 [1, 5]: 0.0186 µM | IC50 [2, 6]: 0.0433 µM

COCC(=O)N[C@@H](Cc1ccc2c(c1)OCO2)[C@H](O)CN[C@H]1CC(C)(C)Cc2sc(CC(C)(C)C)cc21 [compound 187]
IC50 [1, 7]: 0.0202 µM | IC50 [2, 6]: 0.0635 µM

C#Cc1ccc(C[C@H](NC(=O)COC)[C@H](O)CN[C@H]2CC3(CCC3)Oc3ncc(CC(C)C)cc32)cc1 [Example 855]
IC50 [1, 8]: 0.062 µM | IC50 ([2]; Homo sapiens, HEK293, cell-based assay, HEK cells, IC50's in uM, read-out: HEK cell assay): 0.174 µM

COCC(=O)N[C@@H](Cc1ccc2c(c1)OCO2)[C@H](O)CN[C@H]1CC2(CCC2)Oc2ncc(CC(C)(C)C)cc21 [compound 282]
IC50 [1, 7]: 0.00613 µM | IC50 [2, 6]: 0.0168 µM

CO[C@H](C)C(=O)N[C@@H](Cc1cccc(F)c1)[C@H](O)CN[C@H]1CC2(CCC2)Oc2ncc(CC(C)(C)C(F)(F)F)cc21 [compound 74]
IC50 [1, 5]: 0.0305 µM | IC50 [2, 6]: 0.0949 µM

CCOCC(=O)N[C@@H](Cc1ccc(F)cc1)[C@H](O)CN[C@H]1CC2(CCC2)Oc2ncc(CC(C)(C)C)cc21 [compound 655]
IC50 ([1]; read-out: BACE1 FRET assay (IC50)): 0.013 µM | IC50 ([2]; Homo sapiens, HEK293, HEK cells, read-out: HEK cell assay (IC50)): 0.043 µM

CC(=O)N[C@@H](Cc1cccc(F)c1)[C@H](O)CN[C@H]1CC2(CCC2)Oc2ncc([C@H](F)[C@H](C)C(F)(F)F)cc21 [compound 322]
IC50 [1, 3]: 0.0109 µM | IC50 [2, 4]: 0.0399 µM

COCC(=O)N[C@@H](Cc1ccc2c(c1)OCO2)[C@H](O)CN[C@H]1CC2(CCC2)Cc2ncc(CC(C)(C)C)cc21 [compound 168]
IC50 [1, 5]: 0.149 µM | IC50 [2, 6]: 0.211 µM

CCC(=O)Nc1cnc2c(c1)[C@@H](NC[C@@H](O)[C@H](Cc1ccc(F)cc1)NC(C)=O)CC1(CCC1)O2 [compound 85]
IC50 [1, 5]: 0.89 µM | IC50 [2, 6]: > 10 µM

COCC(=O)N[C@@H](Cc1cccc(-c2nccs2)c1)[C@H](O)CN[C@H]1CC2(CCC2)Oc2cnc(CC(C)(C)C)cc21 [compound 807]
IC50 [1, 8]: 0.019 µM | IC50 ([2]; Homo sapiens, HEK293, HEK cell-based assay, IC50's in uM, read-out: HEK cell assay): 0.054 µM

COCC(=O)N[C@@H](Cc1ccc2c(c1)OCO2)[C@H](O)CN[C@H]1CC2(CCC2)Oc2c1cc(CC(C)(C)C)nc2NCC(F)(F)F [compound 142]
IC50 [1, 5]: 0.35 µM | IC50 [2, 6]: 1.95 µM

Reference: patent publication US8163909B2, “Substituted hydroxyethyl amine compounds as beta-secretase modulators and methods of use” (Amgen Inc., priority 2007, dated 2012)
